Drawing on patent EP4772514A1, “MACROCYCLIC COMPOUNDS, PREPARATION METHOD THEREFOR, AND USE THEREOF” (Genfleet Therapeutics (Shanghai) Inc., priority 2023, dated 2025), this text covers IC50 for ten compounds.

Type in all cases: cell-based
One assay relates to AsPC-1 cells. Kind of assay: 3D cell proliferation assay (CellTiter Glo-3D) in AsPC-1 cells. The note with it: ASPC1, 120 h; AsPC-1, human pancreatic cancer cell strain, KRAS G12D mutation; 3D culture, 2% FBS, 5 days; read-out: AsPC-1 AP IC50. The method, boiled down: (§1)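 After a 5-day exposure at 37 °C to 3.16-fold serial dilutions (final DMSO 0.1%) in 2% FBS RPMI-1640, ATP luminescence (CellTiter-Glo 3D) was read. Cells were AsPC-1 (KRAS G12D) or NCI-H441 (KRAS G12V), 800 per well; inhibition used DMSO and medium-only controls, with four-parameter curve fitting giving IC50.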
(In general: ATP-based viability assays read luminescence as a measure of living cells.)

Assay [1] concerns p-ERK. The assay can be described thus: Cell p-ERK assay (HTRF, Advance ERK phospho-T202/Y204 kit) in AsPC-1 cells. The note with it: ASPC1; AsPC-1, human pancreatic cancer cell strain, KRAS G12D mutation; 3 h compound incubation. The gist of the method:
(§2)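 Cells with endogenous KRAS mutations, AsPC-1 (G12D) and NCI-H441 (G12V), were plated overnight and then exposed to compound for 3 h at 37 °C (final 0.1% DMSO, 10% FBS medium). ERK T202/Y204 phosphorylation in lysates was read by HTRF, and IC50 was derived from four-parameter curves of inhibition relative to DMSO and blank controls.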
(TR-FRET usually uses a lanthanide donor and a delayed reading to cut background.)

The next assay has as its system NCI-H441 cells. Kind of assay: 3D cell proliferation assay (CellTiter Glo-3D) in NCI-H441 cells. The note with it: Homo sapiens, NCI-H441, 120 h, NCI-H441, human lung cancer cell strain, KRAS G12V mutation; 3D culture, 2% FBS, 5 days; read-out: H441 AP IC50. The method, boiled down: as §1
The subject of assay [2] is p-ERK. Kind of assay: Cell p-ERK assay (HTRF, Advance ERK phospho-T202/Y204 kit) in NCI-H441 cells. The conditions noted are these: Homo sapiens, NCI-H441, 3 h, NCI-H441, human non-small cell lung cancer cell strain, KRAS G12V mutation; 3 h compound incubation. The gist of the method:
as §2

With `CCn1c(F)c2c(c1-c1cc(C#CCN3CCC(C#N)CC3)cnc1[C@H](C)OC)CC(C)(C)COC(=O)[C@@H]1CCCN(N1)C(=O)[C@@H](NC(=O)[C@H]1[C@H](C)[C@@H]1C)Cc1nc(cs1)/C=C/2` (atropisomer, axis not shown; (Ra)) [Compound Z139, (1r, 2R, 3S)-N-((4^2Z, 8^3S,2E,6S)-(Ra)-1^5-(5-(3-(4-cyanopiperidin-1-yl)prop-1-yn-1-yl)-2-((S)-1-methoxyethyl)pyridin-3-yl)-1^1-ethyl-1^2-fluoro-12,12-dimethyl-7,9-dioxo-8^1,8^1,8^1,8^4,8^5,8^6-hexahydro-1^1H-10-oxa-4(4,2)-thiazola-8(1,3)-pyridazina-1(3,4)-pyrrolacyclotridecaphan-2-en-6-yl)-2,3-dimethylcyclopropane-1-carboxamide], the IC50 in the assay on AsPC-1 cells amounted to 0.1 nM; in the assay with p-ERK [1] it was 0.4 nM; in the assay with NCI-H441 cells it was 0.12 nM; in the assay on p-ERK [2], 0.42 nM.
For `CO[C@@H](C)c1ncc(C#CCN2CCS(=O)(=O)CC2)cc1-c1c2c(cn1C1CCCC1)/C=C/c1csc(n1)C[C@H](NC(=O)[C@H]1[C@H](C)[C@@H]1C)C(=O)N1CCC[C@H](N1)C(=O)OCC(C)(C)C2` (atropisomer, axis not shown; (Ra)) [Compound Z125, (1r,2R,3S)-N-((4^2Z,8^3S,2E,6S)-1^1-cyclopentyl-(Ra)-1^5-(5-(3-(1,1-dioxidothiomorpholino)prop-1-yn-1-yl)-2-((S)-1-methoxyethyl)pyridin-3-yl)-12,12-dimethyl-7,9-dioxo-8^1,8^2,8^3,8^4,8^5,8^6-hexahydro-1^1H-10-oxa-4(4,2)-thiazola-8(1,3)-pyridazina-1(3,4)-pyrrolycyclotridec-2-en-6-yl)-2,3-dimethylcyclopropane-1-carboxamide], the IC50 in the assay with AsPC-1 cells is 0.35 nM; in the assay with p-ERK [1], 0.51 nM; in the assay on NCI-H441 cells, 0.36 nM; with p-ERK [2], 0.53 nM.
The corresponding values for `CCn1cc2c(c1-c1cc(C#CCN3CCC(C#N)(CN)CC3)cnc1[C@H](C)OC)CC(C)(C)COC(=O)[C@@H]1CCCN(N1)C(=O)[C@@H](NC(=O)[C@H]1[C@@H]3COC[C@@H]31)Cc1nc(co1)/C=C/2` (atropisomer, axis not shown; (Ra)) [Compound Z89, (1R,5S,6r)-N-((4^2Z,8^3S,2E, 6S)-(Ra)-1^5-(5-(3-(4-(aminomethyl)-4-cyanopiperidin-1-yl)prop-1-yn-1-yl)-2-((S)-1-methoxyethyl)pyridin-3-yl)-1^1-ethyl-12,12-dimethyl-7,9-dioxo-8^1,8^2,8^3,8^4,8^5,8^6-hexahydro-1^1 H-10-oxa-4(4,2)-oxazola-8(1,3)-pyridazina-1(3,4)-pyrrolacyclotridecaphan-2-en-6-yl)-3-oxabicyclo[3.1.0]hexane-6-carboxamide] are 0.11 nM, 0.13 nM, 0.15 nM and 0.23 nM.
The corresponding values for `CCn1c(F)c2c(c1-c1cc(C#CCN3CCC(C#N)(CN)CC3)cnc1[C@H](C)OC)CC(C)(C)COC(=O)[C@@H]1CCCN(N1)C(=O)[C@@H](NC(=O)[C@H]1[C@H](C)[C@@H]1C)Cc1nc(cs1)/C=C/2` (atropisomer, axis not shown; (Ra)) [Compound Z145, (1r,2R,3S)-N-((4^2Z, 8^3S, 2E, 6S)-(Ra)-1^5-(5-(3-(4-(aminomethyl)-4-cyanopiperidin-1-yl)prop-1-yn-1-yl)-2-((S)-1-methoxyethy)pyridin-3-yl)-1^1-ethyl-1^2-fluoro-12,12-dimethyl-7,9-dioxo-8^1,8^2,8^3,8^4,8^5,8^6-hexahydro-1^1H-10-oxa-4(4,2)-thiazola-8(1,3)-pyridazina-1(3,4)-pyrrolacyclotridecaphan-2-en-6-yl)-2,3-dimethylcyclopropane-1-carboxamide] are 0.15 nM, 0.15 nM, 0.2 nM and 0.29 nM.
`CCn1cc2c(c1-c1cc(C#CCN3CCOCC3)cnc1[C@H](C)OC)CC(C)(C)COC(=O)[C@@H]1CCCN(N1)C(=O)[C@@H](NC(=O)[C@H]1[C@H](C)[C@@H]1C)Cc1nc(cs1)/C=C/2` (atropisomer, axis not shown; (Ra)) [Compound Z172, (1r,2R,3S)-N-((4^2Z, 8^1S, 2E, 6S)-1^1-ethyl-(Ra)-1^5-(2-((S)-1-methoxyethyl)-5-(3-morpholinoprop-1-yn-1-yl)pyridin-3-yl)-12,12-dimethyl-7,9-dioxo-8^1,8^2,8^3,8^4,8^5,8^6-hexahydro-1^1H-10-oxa-4(4,2)-thiazola-8(1,3)-pyridazina-1(3,4)-pyrrolacyclotridecaphan-2-en-6-yl)-2,3-dimethylcyclopropane-1-carboxamide]: the IC50 in the assay on AsPC-1 cells is 0.4 nM; in the assay with p-ERK [1] it was 0.74 nM; with NCI-H441 cells, 0.41 nM; in the assay with p-ERK [2], 0.75 nM.
Regarding `CCn1cc2c(c1-c1cc(C#CCN3CCC3)cnc1[C@H](C)OC)CC(C)(C)COC(=O)[C@@H]1CCCN(N1)C(=O)[C@@H](NC(=O)[C@H]1[C@H](C)[C@@H]1C)Cc1nc(cs1)/C=C/2` (atropisomer, axis not shown; (Ra)) [Compound Z70, (1r,2R,3S)-N-((4^2Z, 8^3S,2E,6S)-(Ra)-1^5-(5-(3-(azetidin-1-yl)prop-1-yn-1-yl)-2-((S)-1-methoxyethyl)pyridin-3-yl)-1^1-ethyl-12,12-dimethyl-7,9-dioxo-8^1,8^2,8^3,8^4,8^5,8^6-hexahydro-1^1H-10-oxa-4(4,2)-thiazola-8(1,3)-pyridazina-1(3,4)-pyrrolacyclotridecaphan-2-en-6-yl)-2,3-dimethylcyclopropane-1-carboxamide], the IC50 in the assay on AsPC-1 cells was 1.54 nM; in the assay on p-ERK [1], 3.6 nM; in the assay on NCI-H441 cells, 1.12 nM; in the assay with p-ERK [2] it was 2.03 nM.
The like results for `CCn1cc2c(c1-c1cc(C#CCN3CCC(C#N)(CO)CC3)cnc1[C@H](C)OC)CC(C)(C)COC(=O)[C@@H]1CCCN(N1)C(=O)[C@@H](NC(=O)[C@H]1[C@H](C)[C@@H]1C)Cc1nc(cs1)/C=C/2` (atropisomer, axis not shown; (Ra)) [Compound Z103, (1r,2R,3S)-N-((4^2Z,8^3S,2E,6S)-(Ra)-1^5-(5-(3-(4-cyano-4-(hydroxymethyl)piperidin-1-yl)prop-1-yn-1-yl)-2-((S)-1-methoxyethyl)pyridin-3-yl)-1^1-ethyl-12,12-dimethyl-7,9-dioxo-8^1,8^2,8^3,8^4,8^5,8^6-hexahydro-1^1H-10-oxa-4(4,2)-thiazola-8(1,3)-pyridazina-1(3,4)-pyrrolacyclotridecaphan-2-en-6-yl)-2,3-dimethylcyclopropane-1-carboxamide] were, in that order, 0.05 nM, 0.08 nM, 0.11 nM and 0.32 nM.
The corresponding values for `CCn1nc2c(c1-c1cc(C#CCN3CCC(C#N)CC3)cnc1[C@H](C)OC)CC(C)(C)COC(=O)[C@@H]1CCCN(N1)C(=O)[C@@H](NC(=O)[C@H]1[C@H](C)[C@@H]1C)Cc1nc(cs1)/C=C/2` (atropisomer, axis not shown; (Ra)) [Compound Z73, (1r,2R,3S)-N-((4^2Z,8^3S,2E,6S)-(Ra)-1^5-(5-(3-(4-cyanopiperidin-1-yl)prop-1-yn-1-yl)-2-((S)-1-methoxyethyl)pyridin-3-yl)-1^1-ethyl-12,12-dimethyl-7,9-dioxo-8^1,8^2,8^3,8^4,8^5,8^6-hexahydro-1^1H-10-oxa-4(4,2)-thiazola-8(1,3)-pyridazina-1(3,4)-pyrrolacyclotridecaphan-2-en-6-yl)-2,3-dimethylcyclopropane-1-carboxamide] are 1.34 nM, 1.73 nM, 0.91 nM and 0.88 nM.
As for `CCn1c(F)c2c(c1-c1cc(C#CCN3CCS(=O)(=O)CC3)cnc1[C@H](C)OC)CC(C)(C)COC(=O)[C@@H]1CCCN(N1)C(=O)[C@@H](NC(=O)[C@H]1[C@H](C)[C@@H]1C)Cc1nc(cs1)/C=C/2` (atropisomer, axis not shown; (Ra)) [Compound Z80, (1r,2R,3S)-N-((4^2Z,8^3S,2E,6S)-(Ra)-1^5-(5-(3-(1,1-dioxidothiomorpholino)prop-1-yn-1-yl)-2-((S)-1-methoxyethyl)pyridin-3-yl)-1^1-ethyl-1^2-fluoro-12,12-dimethy^l-7,9-dioxo-8^1,8^2,8^3,8^4,8^5,8^6-hexahydro-1^1H-10-oxa-4(4,2)-thiazola-8(1,3)-pyridazina-1(3,4)-pyrrolacyclotridecaphan-2-en-6-yl)-2,3-dimethylcyclopropane-1-carboxamide], the IC50 in the assay with AsPC-1 cells stood at 0.16 nM; with p-ERK [1], 0.24 nM; with NCI-H441 cells it was 0.18 nM; in the assay with p-ERK [2], 0.2 nM.
With `CCn1cc2c(c1-c1cc(N3CCN(C)CC3)cnc1[C@H](C)OC)CC(C)(C)COC(=O)[C@@H]1CCCN(N1)C(=O)[C@@H](NC(=O)[C@H]1[C@H](C)[C@@H]1C)Cc1nc(cs1)/C=C/2` (single isomer, unassigned) [Compound Z8], the IC50 turned out to be 2.37 nM in the assay on AsPC-1 cells, 4.98 nM in the assay on p-ERK [1], 2.39 nM in the assay with NCI-H441 cells and 4.74 nM in the assay with p-ERK [2].

By IC50 is commonly meant the concentration that gives 50% inhibition.
